Assays:
[1] = test system: MDA-MB-468; test: Inhibition of cell proliferation by payloads in vitro (CCK-8); type: cell-based; details: Homo sapiens, MDA-MB-468, 144 h; payloads, proliferation, 6 days, CCK-8; read-out: IC50, nM MDA-MB-468
Experimental: (§1) The cells were added to a 96-well plate at 1.0×10^3 cells/well and 100 μL/well and incubated in a cell culture incubator at 37° C. and 5% CO2. The test compounds were diluted with a DMEM medium containing 2% DMSO (Sigma-Aldrich, Cat. No. 34869) in a 4-fold gradient to the corresponding concentrations. […] The final concentration of DMSO was 0.2%. The cells were incubated in a cell culture incubator at 37° C. and 5% CO2 for 6 days.
(§2) After 6 days of culture, 10 μL/well of Cell Counting Kit-8 reagent (CCK-8, Dojindo, Cat. No. CK04) was added to the wells and mixed well with shaking. The cells were incubated in a cell culture incubator at 37° C. and 5% CO2 for 0.50-4.0 hours.
(§3) The OD450 optical density value was read on an EnVision™ multi-function microplate reader (PerkinElmer), and the inhibition rates (%) of the compounds were calculated. Then, the half-maximal inhibitory concentration (IC50) values were obtained using the XLfit5 software (ID Business Solutions Limited). All samples were tested in duplicate wells.
(§4) [formula] • wherein • OD450test compound represents the optical density value in the wells of the compounds to be tested; • OD450cell represents the optical density value in the wells of cell controls; • OD450background represents the optical density value in the wells of cell-free controls.

[2] = test system: MDA-MB-453; test: as above; type: cell-based; details: Homo sapiens, MDA-MB-453, 144 h, read-out: IC50, nM MDA-MB-453; payloads, proliferation, 6 days, CCK-8
Experimental: as §1, §2, §3, §4

[3] = target: T1, Human PIK3CA/PIK3R1 (p110α/p85α) recombinant protein (Homo sapiens, UniProt P42336); test: PIK3CA/PIK3R1 (p110α/p85α) kinase activity, Transcreener ADP2 FP; type: biochemical; details: 10 μM ATP, 30 μM PIP2:PS; read-out: PIK3CA/PIK3R1 (p110α/p85α) (Enzyme, IC50)
T1 construct: His tag; purchased Invitrogen PV4788
Experimental: The complex formed by the binding of the ADP Alexa633 Tracer to the ADP2 antibody therein could produce fluorescence polarization. […] Assay is carried out according to the instruction of the kit. […] After that, 10 μl PIK3CA/PIK3R1 (p110α/p85α) enzyme solution was added to each well; then, 10 μl of a mixed solution of ATP and PIP2:PS lipid kinase substrate was added to each well, and the mixture was centrifuged at 1000 rpm for 60 seconds; Then, the 96-well plate was placed in a constant temperature incubator protected from light and incubated at room temperature for 1 hour. […] After the enzymatic reaction was completed, 25 μl of ADP detection mixture was added to the positive control group, 25 μl of ADP detection mixture without ADP^2 antibody was added to the negative control group, and 25 μl of ADP detection mixture without tracer-label ADP and ADP^2 antibody was added to the blank control group. Then centrifugation was performed at 1000 rpm for 60 seconds. The 96-well plate was placed in a constant temperature incubator protected from light, and incubated at room temperature for 1.5 hours. […] [formula] The inhibition rate was calculated using the formula as below: [formula]

[4] = target: T2, Human FRAP1 (mTOR) recombinant protein (Homo sapiens, UniProt P42345); test: FRAP1 (mTOR) kinase activity, LanthaScreen TR-FRET; type: biochemical; details: 10 μM ATP, 0.4 μM GFP-4EBP1; read-out: FRAP1 (mTOR) (Enzyme, IC50)
T2 construct: GST; purchased Invitrogen PV4753
Experimental: Determination of FRAP1 (mTOR) Kinase Activity • Human FRAP1 (mTOR) recombinant protein (GST tag): Invitrogen, Cat. No. PV4753; • GFP-4E-BP1: Thermo Scientific, Cat. No. PV4759; • LanthaScreenTM Tb-p4E-BP1 ([…]) antibody: Thermo Scientific, Cat. No. PV4755; • TR-FRET dilution buffer: Thermo Scientific, Cat. No. PV3574; • ATP solution (10 mM): Thermo Scientific, Cat. No. PV3227; • HEPES (1 M): Gibco, Cat. No. 15630-106; • EDTA (0.5 M), pH 8.0, RNase-free: Invitrogen, Cat. No. A[…]; • Manganese chloride solution: Sigma-Aldrich, Cat. No. M1787; • EGTA: Sigma-Aldrich, Cat. No. E4378; • TWEEN®20: Sigma-Aldrich, Cat. No. P2287; • DTT: Sigma-Aldrich, Cat. No. DTT-RO; • 384-well plate: Corning, Cat. No. 3676; • 384-well plate: Corning, Cat. No. 4514; • Envision multi-mode plate reader: PerkinElmer; 4EBP1 is the substrate of mTOR, and when mTOR is activated, it will phosphorylate […] of the 4EBP1 protein. LanthaScreenTM kinase assay is used to detect the amount of phosphorylated substrate GFP-4E-BP1 produced in kinase activity experiments, thereby judging the mTOR kinase activity, and through the strength of the kinase activity, distinguishing the inhibitory effects of different compounds on the activity of FRAP1 (mTOR) kinase. […] Then, the 384-well plate was placed in a constant temperature incubator protected from light and incubated at room temperature for 1 hour. […] The 384-well plate was taken out and the plate was read using an Envision multi-mode plate reader (the excitation light wavelength was 320 nm and the emission light wavelengths were 495 nm and 520 nm). The inhibition rate was calculated using the formula as below: [formula]

[5] = target: T3, DNA-PK(h) (Homo sapiens, UniProt P78527); test: DNA-PK(h) kinase activity, HTRF (Eurofins Cerep); type: biochemical; details: read-out: DNA-PK(h) (enzyme, IC50)
T3 construct: purchased Eurofins Cerep 14-950
Experimental: (§5) The […], ATM(h), ATR/ATRIP(h), and DNA-PK (h) were detected by HTRFR.
(§6) The calculation formula was as follows: […]
(§7) For IC50 determination, the data were analyzed using XLFit version 5.3 (ID Business Solutions).

[6] = target: ATM(h) (Homo sapiens, UniProt Q13315); test: ATM(h) kinase activity, HTRF (Eurofins Cerep); type: biochemical; details: read-out: ATM(h) (enzyme, IC50)
Experimental: as §5, §6, §7

[7] = target: T4, ATR/ATRIP(h) (Homo sapiens, UniProt Q13535); test: ATR/ATRIP(h) kinase activity, HTRF (Eurofins Cerep); type: biochemical; details: read-out: ATR/ATRIP(h) (enzyme, IC50)
T4 construct: purchased Eurofins Cerep 14-953
Experimental: as §5, §6, §7

T2 sequence (P42345 1360-2549 limits assumed): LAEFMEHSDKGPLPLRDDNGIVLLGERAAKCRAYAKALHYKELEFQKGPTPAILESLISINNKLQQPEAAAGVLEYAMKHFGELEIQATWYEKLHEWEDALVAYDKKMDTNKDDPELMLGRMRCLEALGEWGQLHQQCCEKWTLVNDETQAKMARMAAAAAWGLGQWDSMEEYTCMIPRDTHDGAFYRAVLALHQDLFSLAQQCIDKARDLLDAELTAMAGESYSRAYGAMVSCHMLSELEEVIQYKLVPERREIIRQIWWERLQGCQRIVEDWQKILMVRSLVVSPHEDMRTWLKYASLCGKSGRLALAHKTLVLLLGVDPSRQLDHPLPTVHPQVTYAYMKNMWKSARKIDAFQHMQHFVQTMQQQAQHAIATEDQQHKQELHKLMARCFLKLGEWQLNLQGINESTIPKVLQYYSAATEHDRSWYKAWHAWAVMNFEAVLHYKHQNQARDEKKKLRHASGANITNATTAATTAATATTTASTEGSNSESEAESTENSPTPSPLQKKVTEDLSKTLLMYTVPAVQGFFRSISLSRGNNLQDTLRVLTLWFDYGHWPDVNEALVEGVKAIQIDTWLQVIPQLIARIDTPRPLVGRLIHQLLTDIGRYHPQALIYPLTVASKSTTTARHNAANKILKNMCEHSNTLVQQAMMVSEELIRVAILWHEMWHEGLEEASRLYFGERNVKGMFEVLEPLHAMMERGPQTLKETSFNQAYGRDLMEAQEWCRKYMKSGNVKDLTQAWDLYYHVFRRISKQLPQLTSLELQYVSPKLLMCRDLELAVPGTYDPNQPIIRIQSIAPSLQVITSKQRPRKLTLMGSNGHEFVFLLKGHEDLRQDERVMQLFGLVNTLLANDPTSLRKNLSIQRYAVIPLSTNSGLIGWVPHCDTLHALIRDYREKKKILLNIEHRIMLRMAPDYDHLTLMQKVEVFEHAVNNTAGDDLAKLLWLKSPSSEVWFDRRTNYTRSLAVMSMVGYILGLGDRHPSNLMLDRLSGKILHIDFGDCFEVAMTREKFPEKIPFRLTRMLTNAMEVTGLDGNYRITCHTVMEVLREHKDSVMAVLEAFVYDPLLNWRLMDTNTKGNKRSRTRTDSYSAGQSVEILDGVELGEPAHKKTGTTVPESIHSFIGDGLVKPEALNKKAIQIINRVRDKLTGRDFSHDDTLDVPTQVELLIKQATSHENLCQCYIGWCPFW
T4 sequence (Q13535 whole entry): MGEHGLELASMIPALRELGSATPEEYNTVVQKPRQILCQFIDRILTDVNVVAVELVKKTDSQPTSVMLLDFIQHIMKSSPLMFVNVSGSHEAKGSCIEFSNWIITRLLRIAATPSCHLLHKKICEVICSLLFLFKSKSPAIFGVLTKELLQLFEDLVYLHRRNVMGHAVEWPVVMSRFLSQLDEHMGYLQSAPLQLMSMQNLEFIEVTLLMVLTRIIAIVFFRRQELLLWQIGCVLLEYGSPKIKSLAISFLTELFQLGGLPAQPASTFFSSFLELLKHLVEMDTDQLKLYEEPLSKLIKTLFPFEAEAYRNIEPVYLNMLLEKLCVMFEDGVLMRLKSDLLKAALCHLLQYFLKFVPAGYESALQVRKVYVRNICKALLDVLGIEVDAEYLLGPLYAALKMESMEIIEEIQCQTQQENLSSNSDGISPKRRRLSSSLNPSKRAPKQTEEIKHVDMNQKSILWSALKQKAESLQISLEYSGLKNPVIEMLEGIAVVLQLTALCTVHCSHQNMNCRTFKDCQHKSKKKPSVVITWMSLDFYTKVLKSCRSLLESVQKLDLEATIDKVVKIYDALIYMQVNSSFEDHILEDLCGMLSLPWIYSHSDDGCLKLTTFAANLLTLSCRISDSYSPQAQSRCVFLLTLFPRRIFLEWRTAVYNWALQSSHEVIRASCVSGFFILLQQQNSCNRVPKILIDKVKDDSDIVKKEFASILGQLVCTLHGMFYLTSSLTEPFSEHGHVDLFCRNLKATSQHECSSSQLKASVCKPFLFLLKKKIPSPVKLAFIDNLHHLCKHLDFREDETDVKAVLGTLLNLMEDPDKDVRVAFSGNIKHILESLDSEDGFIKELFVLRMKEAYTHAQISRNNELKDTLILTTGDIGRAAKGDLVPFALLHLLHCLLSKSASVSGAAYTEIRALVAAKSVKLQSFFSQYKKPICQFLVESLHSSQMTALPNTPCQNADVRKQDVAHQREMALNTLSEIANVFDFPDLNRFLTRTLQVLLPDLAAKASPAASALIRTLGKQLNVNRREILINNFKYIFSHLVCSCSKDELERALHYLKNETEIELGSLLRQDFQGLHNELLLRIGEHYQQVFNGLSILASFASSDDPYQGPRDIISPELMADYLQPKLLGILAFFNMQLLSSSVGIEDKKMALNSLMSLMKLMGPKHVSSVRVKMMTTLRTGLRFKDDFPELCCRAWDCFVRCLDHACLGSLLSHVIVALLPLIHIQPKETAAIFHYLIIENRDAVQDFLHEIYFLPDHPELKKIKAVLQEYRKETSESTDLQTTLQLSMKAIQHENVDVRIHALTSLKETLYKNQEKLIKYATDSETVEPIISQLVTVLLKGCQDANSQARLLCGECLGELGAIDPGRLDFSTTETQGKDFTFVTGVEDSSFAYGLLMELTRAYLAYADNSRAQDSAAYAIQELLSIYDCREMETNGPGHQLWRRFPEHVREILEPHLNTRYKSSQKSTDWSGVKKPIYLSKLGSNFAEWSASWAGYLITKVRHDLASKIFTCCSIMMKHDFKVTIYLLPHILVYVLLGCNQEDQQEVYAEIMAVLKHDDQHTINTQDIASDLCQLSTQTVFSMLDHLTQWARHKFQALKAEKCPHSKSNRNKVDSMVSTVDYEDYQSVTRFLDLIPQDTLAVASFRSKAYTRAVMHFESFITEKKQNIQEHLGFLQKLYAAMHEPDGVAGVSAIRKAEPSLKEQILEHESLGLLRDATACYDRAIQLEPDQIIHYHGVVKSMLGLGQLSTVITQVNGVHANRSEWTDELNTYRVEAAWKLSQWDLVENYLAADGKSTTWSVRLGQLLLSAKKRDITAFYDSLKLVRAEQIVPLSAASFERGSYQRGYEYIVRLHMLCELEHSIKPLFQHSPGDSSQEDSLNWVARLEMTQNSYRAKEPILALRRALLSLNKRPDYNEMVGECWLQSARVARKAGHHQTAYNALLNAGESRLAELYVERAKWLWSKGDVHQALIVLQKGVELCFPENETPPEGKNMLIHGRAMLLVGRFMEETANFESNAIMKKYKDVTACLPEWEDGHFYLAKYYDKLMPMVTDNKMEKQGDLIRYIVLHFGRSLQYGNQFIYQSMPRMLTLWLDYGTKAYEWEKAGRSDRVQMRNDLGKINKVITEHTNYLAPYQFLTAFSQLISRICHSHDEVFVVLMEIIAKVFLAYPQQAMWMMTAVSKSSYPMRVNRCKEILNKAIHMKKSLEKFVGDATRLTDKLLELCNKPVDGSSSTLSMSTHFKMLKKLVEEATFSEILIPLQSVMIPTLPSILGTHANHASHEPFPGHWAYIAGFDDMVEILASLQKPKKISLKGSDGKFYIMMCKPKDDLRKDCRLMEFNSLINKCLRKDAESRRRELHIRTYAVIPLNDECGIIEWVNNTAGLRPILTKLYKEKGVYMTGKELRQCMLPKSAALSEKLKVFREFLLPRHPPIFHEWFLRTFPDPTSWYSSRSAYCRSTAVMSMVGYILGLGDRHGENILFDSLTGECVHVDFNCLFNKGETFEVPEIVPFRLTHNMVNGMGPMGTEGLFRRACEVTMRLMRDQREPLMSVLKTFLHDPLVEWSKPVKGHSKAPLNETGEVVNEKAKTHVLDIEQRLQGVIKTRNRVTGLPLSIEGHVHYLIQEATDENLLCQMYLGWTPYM
T4 sequence (Q8WXE1 whole entry partner): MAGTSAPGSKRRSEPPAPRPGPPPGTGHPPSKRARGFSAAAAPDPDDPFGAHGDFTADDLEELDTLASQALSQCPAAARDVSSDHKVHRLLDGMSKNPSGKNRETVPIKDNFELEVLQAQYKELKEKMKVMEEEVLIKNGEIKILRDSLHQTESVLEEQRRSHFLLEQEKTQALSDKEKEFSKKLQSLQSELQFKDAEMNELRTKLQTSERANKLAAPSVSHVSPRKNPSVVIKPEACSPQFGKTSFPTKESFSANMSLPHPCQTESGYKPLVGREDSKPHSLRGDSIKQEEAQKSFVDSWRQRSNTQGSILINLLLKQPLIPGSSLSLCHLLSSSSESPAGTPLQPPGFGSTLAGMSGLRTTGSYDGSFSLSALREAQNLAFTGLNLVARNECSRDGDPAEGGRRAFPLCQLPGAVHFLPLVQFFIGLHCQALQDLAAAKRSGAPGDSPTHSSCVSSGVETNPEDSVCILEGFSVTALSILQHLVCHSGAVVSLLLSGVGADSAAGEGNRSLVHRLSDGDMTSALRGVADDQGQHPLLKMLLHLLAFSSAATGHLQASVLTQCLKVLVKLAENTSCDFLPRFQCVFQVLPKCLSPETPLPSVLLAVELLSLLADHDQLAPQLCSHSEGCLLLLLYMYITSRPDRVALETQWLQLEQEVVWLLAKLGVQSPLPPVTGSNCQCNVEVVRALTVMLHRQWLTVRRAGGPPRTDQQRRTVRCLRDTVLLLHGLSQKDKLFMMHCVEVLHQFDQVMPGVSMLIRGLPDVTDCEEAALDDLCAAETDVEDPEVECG

IC50 [1] [nM]	IC50 [2] [nM]	IC50 [3] [nM]	IC50 [4] [nM]	IC50 [5] [nM]	IC50 [6] [nM]	IC50 [7] [nM]	SMILES
3.4	1.8						COc1ncc(-c2ccc3ncc4ncn(C5CCC5)c4c3c2)cc1NS(=O)(=O)N1CCNCC1 [Compound 17]
0.09	0.064	1.6	7.5				COc1ncc(-c2ccc3ncc4c(c3c2)n(C2CCC2)c(=O)n4C)cc1NS(=O)(=O)N1CCNCC1 [Compound 5]
1.4	0.55	0.7	3.4				COc1ncc(-c2ccc3ncc4ncc(C5CC5)n4c3c2)cc1NS(=O)(=O)N1CCNCC1 [Compound 23]
1							COc1ncc(-c2ccc3ncc4nnc(C5CC5)n4c3c2)cc1NS(=O)(=O)N1CCNCC1 [Compound 9]
0.29	0.24		6.4	0.2	0.7	17	COc1ncc(-c2ccc3ncc4c(c3c2)n([C@@H]2C[C@@H]2F)c(=O)n4C)cc1NS(=O)(=O)N1CCNCC1 [Compound 27]
0.71	0.89						COc1ncc(-c2ccc3ncc4nnc(C5CCC5)n4c3c2)cc1NS(=O)(=O)N1CCNCC1 [Compound 4]
0.055	0.12	1.4	8.6				COc1ncc(-c2ccc3ncc4c(c3c2)n(C2CCCC2)c(=O)n4C)cc1NS(=O)(=O)N1CCNCC1 [Compound 19]
3.4	2.8						Cn1c(=O)n(C2CC2)c2c3cc(-c4cnc(OCC(F)(F)F)c(NS(=O)(=O)N5CCNCC5)c4)ccc3ncc21 [Compound 34]
0.2	0.34		10.8				COc1ncc(-c2ccc3ncc4c(c3c2)n(C2CC(F)(F)C2)c(=O)n4C)cc1NS(=O)(=O)N1CCNCC1 [Compound 25]
0.32	0.25						COc1ncc(-c2ccc3ncc4c(c3c2)n(C)c(=O)n4C)cc1NS(=O)(=O)N1CCNCC1 [Compound 6]
0.21	0.32						COc1ncc(-c2ccc3ncc4c(c3c2)n([C@H]2C[C@H](CO)C2)c(=O)n4C)cc1NS(=O)(=O)N1CCNCC1 [Compound 8]
1.9	1.8						COc1ncc(-c2ccc3ncc4c(c3c2)n([C@H]2C[C@H](CO)C2)c(=O)n4C)cc1NS(=O)(=O)N1CCN(C)CC1 [Compound 26]
0.24		0.6	2.8	0.3	0.6	13	COc1ncc(-c2ccc3ncc4c(c3n2)n(C2CC2)c(=O)n4C)cc1NS(=O)(=O)N1CCNCC1 [Compound 28]
6	7.9						COc1ncc(-c2ccc3ncc4nnc(C5CC5)n4c3c2)cc1NS(=O)(=O)N1CCN(C)CC1 [Reference compound 1, reference compound]
91.4	61.6						COc1ncc(-c2ccc3ncc4c(c3c2)n(C2COC2)c(=O)n4C)cc1NS(=O)(=O)N1CCNCC1 [Compound 16]
0.24	0.22	2.8		0.3	0.6	17	COc1ncc(-c2ccc3ncc4c(c3c2)n(CC(F)(F)F)c(=O)n4C)cc1NS(=O)(=O)N1CCNCC1 [Compound 32]
4.9	6.6						COc1ncc(-c2ccc3ncc4nccn4c3c2)cc1NS(=O)(=O)N1CCNCC1 [Compound 21]
0.091		2.1	6.2				COc1ncc(-c2ccc3ncc4cnc(C5CCC5)n4c3c2)cc1NS(=O)(=O)N1CCNCC1 [Compound 18]
7.9	3.3						COc1ncc(-c2ccc3ncc4c(c3c2)n(C2CC2)c(=O)n4C)cc1NS(=O)(=O)N1CC2CNCC2C1 (stereo not drawn) [Compound 12]
3	2.3						COc1ncc(-c2ccc3ncc4c(c3c2)n(C2CC2)c(=O)n4CC(F)(F)F)cc1NS(=O)(=O)N1CCNCC1 [Compound 33]
1							COc1ncc(-c2ccc3ncc4cnc(C)n4c3c2)cc1NS(=O)(=O)N1CCNCC1 [Compound 20]
18.4	14.9						COc1ncc(-c2ccc3ncc4c(c3c2)n(C2CC2)c(=O)n4C)cc1NS(=O)(=O)N1CCC2(CC1)CNC2 [Compound 15]
1.8	1.3						COc1ncc(-c2ccc3ncc4c(c3c2)C(C2CC2)N=N4)cc1NS(=O)(=O)N1CCNCC1 (stereo not drawn) [Compound 13]
0.2	0.24	1.8					COc1ncc(-c2ccc3ncc4cnc(C5CC(F)(F)C5)n4c3c2)cc1NS(=O)(=O)N1CCNCC1 [Compound 24]
0.41	0.39	0.6	11.2				COc1ncc(-c2ccc3ncc4c(c3c2)n(C2CC2)c(=O)n4C)cc1NS(=O)(=O)C1CCNCC1 [Compound 14]
0.2	0.22						[2H]C([2H])([2H])n1c(=O)n(C2CC2)c2c3cc(-c4cnc(OC)c(NS(=O)(=O)N5CCNCC5)c4)ccc3ncc21 [Compound 35]
9.2	6.5						COc1ncc(-c2ccc3ncc4c(c3c2)n(C2CC2)c(=O)n4C)cc1NS(=O)(=O)N1CCN(CCO)CC1 [Compound 22]
0.22	0.3	0.5	2.7				COc1ncc(-c2ccc3ncc4c(c3c2)n([C@H]2C[C@H](O)C2)c(=O)n4C)cc1NS(=O)(=O)N1CCNCC1 [Compound 7]
	2.3						COc1ncc(-c2ccc3ncc4c(c3c2)n(C2CC2)c(=O)n4C)cc1NS(=O)(=O)N1CCN(C)CC1 [Compound 10]
	0.24			0.2	0.4	15	COc1ncc(-c2ccc3ncc4c(C)nc(C5CC5)n4c3c2)cc1NS(=O)(=O)N1CCNCC1 [Compound 31]
